Laboratory results published in US20150315188A1, “COMPOUNDS AND METHODS FOR TREATMENT OF HYPERTENSION” (MEDIVATION TECHNOLOGIES, INC., priority 2012, published 2015).

How the values were obtained:
Parameters in all cases: purchased Milipore (Millipore)
[1] = biological target: T1, Human adrenergic α2B receptor (Homo sapiens, UniProt P18089); assay: Radioligand binding, adrenergic α2B (Protocol Group B); settings: Protocol Group B; for Percentage inhibition of ligand binding, Adrenergic α2B (10 nM): 10 nM compound, 0.01 µM; for Percentage inhibition of ligand binding, Adrenergic α2B (30 nM): 30 nM compound, 0.03 µM; for Percentage inhibition of ligand binding, Adrenergic α2B (0.1 μM): 0.1 μM compound
T1 sequence (P18089 1-450): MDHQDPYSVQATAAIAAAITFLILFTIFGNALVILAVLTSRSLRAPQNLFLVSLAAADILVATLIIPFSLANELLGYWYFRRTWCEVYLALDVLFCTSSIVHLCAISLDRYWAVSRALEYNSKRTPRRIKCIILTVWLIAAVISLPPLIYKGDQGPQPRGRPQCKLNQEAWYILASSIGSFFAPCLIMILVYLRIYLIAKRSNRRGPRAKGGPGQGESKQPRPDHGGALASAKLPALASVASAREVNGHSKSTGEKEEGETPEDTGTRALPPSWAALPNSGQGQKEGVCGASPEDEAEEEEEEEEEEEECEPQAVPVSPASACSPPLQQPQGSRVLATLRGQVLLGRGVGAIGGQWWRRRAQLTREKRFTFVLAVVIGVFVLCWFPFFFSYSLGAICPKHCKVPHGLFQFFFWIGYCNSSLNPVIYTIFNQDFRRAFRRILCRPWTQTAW
In short: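 Recombinant human α2B receptor membranes incubated with compounds in 50 mM Tris-HCl pH 7.4, 5 mM MgCl2, 1 mM CaCl2, 0.2% BSA, 1% DMSO vehicle. Non-specific binding defined with 10 μM rauwolscine. Values are percent inhibition of specific binding or estimated Ki.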

[2] = biological target: T2, Human adrenergic α2A receptor (Homo sapiens, UniProt P08913); assay: Radioligand binding, adrenergic α2A (Protocol Group B); settings: Protocol Group B; for Percentage inhibition of ligand binding, Adrenergic α2A (0.1 μM): 0.1 μM compound; for Percentage inhibition of ligand binding, Adrenergic α2A (0.3 μM): 0.3 μM compound
T2 sequence (P08913 1-465): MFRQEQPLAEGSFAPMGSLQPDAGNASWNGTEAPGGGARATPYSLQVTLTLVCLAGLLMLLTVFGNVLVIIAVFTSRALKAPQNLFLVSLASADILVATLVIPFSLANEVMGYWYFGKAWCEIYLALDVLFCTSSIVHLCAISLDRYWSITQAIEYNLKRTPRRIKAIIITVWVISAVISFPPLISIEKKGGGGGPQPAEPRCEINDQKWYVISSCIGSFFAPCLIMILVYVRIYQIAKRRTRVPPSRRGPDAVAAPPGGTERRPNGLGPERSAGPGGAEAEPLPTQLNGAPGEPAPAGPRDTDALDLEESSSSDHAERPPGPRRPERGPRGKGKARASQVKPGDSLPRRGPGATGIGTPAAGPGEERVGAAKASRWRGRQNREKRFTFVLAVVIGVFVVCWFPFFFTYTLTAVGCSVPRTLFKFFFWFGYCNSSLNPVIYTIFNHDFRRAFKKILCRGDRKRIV
In short: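 Membranes from recombinant cells expressing the receptor, in 50 mM Tris-HCl pH 7.4 with 5 mM MgCl2, 1 mM CaCl2, 0.2% BSA; compounds incubated with 2 nM [^3H]MK-912 for 60 min at 25° C. Nonspecific binding defined by 10 μM rauwolscine; filtration, counting; percent inhibition of specific binding, or estimated Ki.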

[3] = biological target: T3, Human adrenergic α1B receptor (Homo sapiens, UniProt P35368); assay: Radioligand binding, adrenergic α1B (Protocol Group B); settings: Protocol Group B; for Percentage inhibition of ligand binding, Adrenergic α1B (0.1 μM): 0.1 μM compound; for Percentage inhibition of ligand binding, Adrenergic α1B (0.3 μM): 0.3 μM compound
T3 sequence (P35368 1-520): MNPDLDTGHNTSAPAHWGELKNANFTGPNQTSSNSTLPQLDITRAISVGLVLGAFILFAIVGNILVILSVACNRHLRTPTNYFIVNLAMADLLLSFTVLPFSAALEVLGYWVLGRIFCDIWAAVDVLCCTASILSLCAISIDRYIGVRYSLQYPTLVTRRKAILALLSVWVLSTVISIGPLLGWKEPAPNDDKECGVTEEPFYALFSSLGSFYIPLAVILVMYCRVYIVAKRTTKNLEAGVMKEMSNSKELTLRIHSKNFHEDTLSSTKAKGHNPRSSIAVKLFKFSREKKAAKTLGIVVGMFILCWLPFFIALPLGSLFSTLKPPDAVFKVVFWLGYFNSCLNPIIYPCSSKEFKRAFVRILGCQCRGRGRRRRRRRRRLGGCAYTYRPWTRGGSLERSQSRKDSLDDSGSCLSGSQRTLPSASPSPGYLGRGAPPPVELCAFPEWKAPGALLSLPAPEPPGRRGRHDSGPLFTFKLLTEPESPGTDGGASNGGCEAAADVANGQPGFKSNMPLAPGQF
In short: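 Recombinant human α1B membranes incubated with test compound and 0.3 nM [3H]prazosin, 60 min at 25 °C, in 50 mM Tris-HCl pH 7.4, 10 mM MgCl2, 1 mM EDTA; nonspecific binding with 10 μM prazosin. Filter-bound radioactivity counted; values are % inhibition of specific binding or estimated Ki.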

| SMILES | Percentage inhibition of ligand binding, Adrenergic α2B (10 nM) [1] [%] | Percentage inhibition of ligand binding, Adrenergic α2B (30 nM) [1] [%] | Percentage inhibition of ligand binding, Adrenergic α2A (0.1 μM) [2] [%] | Percentage inhibition of ligand binding, Adrenergic α2A (0.3 μM) [2] [%] | Percentage inhibition of ligand binding, Adrenergic α1B (0.1 μM) [3] [%] | Percentage inhibition of ligand binding, Adrenergic α1B (0.3 μM) [3] [%] | Percentage inhibition of ligand binding, Adrenergic α2B (0.1 μM) [1] [%] |
| --- | --- | --- | --- | --- | --- | --- | --- |
| Cc1cc(C)c2c(c1)c1c(n2CC(C)(O)c2cccnc2)CCN2CCCC12 (single isomer, unassigned) [44d] | −17 | −11 | −17 | −16 | −5 | 0 | – |
| Cc1ccc2c(c1)c1c(n2CC(O)c2ccccn2)CC2CCCN2C1 (single isomer, unassigned) [45a] | −4 | 16 | −1 | 12 | 12 | 35 | 43 |
| Cc1ccc2c(c1)c1c(n2CC(O)c2ccccn2)CC2CCCN2C1 (single isomer, unassigned) [45b] | 4 | 7 | −3 | 9 | 18 | 52 | 23 |
| Cc1ccc2c(c1)c1c(n2CC(O)c2ccccn2)CC2CCCN2C1 (single isomer, unassigned) [45c] | 11 | 4 | 0 | −11 | −5 | 3 | 19 |
| Cc1ccc2c(c1)c1c(n2CC(O)c2ccccn2)CC2CCCN2C1 (single isomer, unassigned) [45d] | −10 | 0 | −7 | −2 | 4 | 18 | 34 |
| Cc1ccc2c(c1)c1c(n2CC(C)(O)c2cncc(F)c2)CCN(C)C1 (single isomer, unassigned) [46a] | 33 | 60 | 20 | 35 | 6 | 27 | 82 |
| Cc1ccc2c(c1)c1c(n2CC(C)(O)c2cncc(F)c2)CCN(C)C1 (single isomer, unassigned) [46b] | 0 | 15 | −1 | 3 | 0 | 10 | 37 |
| Cc1cc2c3c(n(CC(C)(O)c4ccncc4)c2cc1Cl)CCN1CCCC31 (single isomer, unassigned) [50c] | 15 | 42 | 22 | 49 | 19 | 43 | 91 |
